The nature of series [1]: Cmax in mouse at 0.5 mg/kg, iv by LC-MS/MS analysis. The class given is ADME, organism-based. On the set-up: dose 0.5 mg/kg, route intravenous. The conditions noted are these: in vivo.
Series [2] can be described thus: Clearance in mouse at 0.5 mg/kg, iv by LC-MS/MS analysis. The class given is ADME, organism-based. The settings on record: in vivo.
Series [3] in a line: Half life in mouse at 0.5 mg/kg, iv by LC-MS/MS analysis. The class given is ADME, organism-based. The conditions noted are these: in vivo.
The nature of series [4]: Oral bioavailability in mouse at 3 mg/kg by LC-MS/MS analysis. The conditions noted are these: in vivo. The series is classed as ADME, organism-based.
A short description of series [5]: AUC in mouse at 0.5 mg/kg, iv by LC-MS/MS analysis. The series is classed as ADME, organism-based. The conditions noted are these: in vivo.
Series [6] can be described thus: Volume of distribution in mouse at 0.5 mg/kg, iv by LC-MS/MS analysis. The series is classed as ADME, organism-based. The settings on record: in vivo.
A short description of series [7]: Half life in mouse liver microsomes. The class given is ADME.
The nature of series [8]: Half life in human liver microsomes. The class given is ADME.

By Cmax is commonly meant the maximum level reached in the sampled fluid or tissue. The clearance is the rate of elimination divided by the concentration. High values mean a high capacity for elimination, low ones a low capacity for elimination. What is called half-life is the time in which the quantity being followed falls by half. A higher half-life goes with slow loss. A word on the bioavailability: it is dose-corrected exposure relative to a reference, in per cent. The AUC is concentration integrated over time. As usually defined, the Vd is a proportionality between amount in the body and measured concentration, not a real space. The low end stands for little distribution into tissue, the high end for wide distribution into tissue.

In series [1], `CC(C)C(=O)N[C@H]1CC[C@H](Nc2ncc3ccc(=O)n(C(C)C)c3n2)CC1` had a Cmax of 1000 nM. The clearance in series [2] is 33 mL/min/kg. Besides, the half-life was 30 min in series [3], 19 min in series [7] and 44 min in series [8]. Besides, the bioavailability in series [4] is 66%. This compound also had an AUC in series [5] of 0.7 µM·h. This compound also returned a Vd in series [6] of 1.3 L/kg.

The compound `CC(C)NC(=O)N[C@H]1CC[C@H](Nc2ncc3ccc(=O)n(C(C)C)c3n2)CC1` returned a Cmax in series [1] of 900 nM. The compound also gave a clearance in series [2] of 28 mL/min/kg. For the same compound, the half-life in series [3] was 66 min; in series [7] it was 22 min; in series [8], 76 min. In addition, in series [4], the bioavailability stood at 87%. The same compound registered an AUC in series [5] of 0.8 µM·h. Further, in series [6], the Vd stood at 1.8 L/kg.

As for `CCNC(=O)N1CCC(Nc2ncc3ccc(=O)n(C(C)C)c3n2)CC1`, the Cmax in series [1] turned out to be 1100 nM. In series [2], this compound registered a clearance of 33 mL/min/kg. Moreover, the figures for the half-life in series [3], in series [7] and in series [8] were 24 min, 14 min and 65 min, respectively. Also, in series [4], the bioavailability stood at 43%. The compound also displayed an AUC in series [5] of 0.7 µM·h. The Vd in series [6] amounted to 1 L/kg.

Turning to `CCNC(=O)N[C@H]1CC[C@H](Nc2ncc3ccc(=O)n(C(C)C)c3n2)CC1`, the Cmax in series [1] was 600 nM. Further, the clearance in series [2] amounted to 72 mL/min/kg. In addition, the half-life was 18 min in series [3], 17 min in series [7] and 46 min in series [8]. Moreover, in series [4], the bioavailability was found to be 100%. This compound also had an AUC in series [5] of 0.3 µM·h. The same compound had a Vd in series [6] of 1.9 L/kg.

Regarding `CCNC(=O)N[C@H]1CC[C@@H](Nc2ncc3ccc(=O)n(C(C)C)c3n2)CC1`, the half-life came out at 8 min in series [7] and 16 min in series [8].

`CC(C)NC(=O)N[C@H]1CC[C@H](Nc2ncc3ccc(=O)n(C4CCCC4)c3n2)CC1`: the values for the half-life in series [7] and in series [8] were 5 min and 7 min, respectively.

For `CC(C)n1c(=O)ccc2cnc(N[C@H]3CC[C@H](O)CC3)nc21`, in series [4], the bioavailability worked out at 10%. The half-life is 23 min in series [7] and > 120 min in series [8].

The record behind these values is ChEMBL document CHEMBL3576797, “Pyridopyrimidinone Derivatives as Potent and Selective c-Jun N-Terminal Kinase (JNK) Inhibitors” (ACS Med Chem Lett, 2015).
